# Source: ChEMBL document CHEMBL5247629, “C-6 fluorinated casuarines as highly potent and selective amyloglucosidase inhibitors: Synthesis and structure-activity relationship study” (Eur J Med Chem, 2022)
# Experiments:
# Prunus dulcis [1] = experiment: Inhibition of almond beta-glucosidase using p-nitrophenyl glycoside as substrate at 1000 uM by spectrometric method relative to control
# Bos taurus [2] = species on record: Bos taurus; experiment: Inhibition of bovine liver beta-glucosidase using p-nitrophenyl glycoside as substrate at 1000 uM by spectrometric method relative to control; assay type: tissue-based
# [3] = target: Alpha-galactosidase (Coffea arabica) (UniProt Q42656); experiment: Inhibition of coffee bean alpha-galactosidase using p-nitrophenyl glycoside as substrate at 1000 uM by spectrometric method relative to control
# [4] = Inhibition of rice alpha-glucosidase using p-nitrophenyl glycoside as substrate by spectrometric method; parameters: species or system Oryza sativa
# Penicillium decumbens [5] = experiment: Inhibition of Penicillium decumbens alpha-L-rhamnosidase using p-nitrophenyl glycoside as substrate at 1000 uM by spectrometric method relative to control
# Bos taurus [6] = species on record: Bos taurus; experiment: Inhibition of bovine liver beta-glucuronidase using p-nitrophenyl glycoside as substrate at 1000 uM by spectrometric method relative to control; assay type: tissue-based
# [7] = target: T1, Tissue alpha-L-fucosidase (Bos taurus) (UniProt Q2KIM0); experiment: Inhibition of bovine kidney alpha-L-fucosidase using p-nitrophenyl glycoside as substrate at 1000 uM by spectrometric method relative to control; assay type: tissue-based
# T1 sequence (whole entry): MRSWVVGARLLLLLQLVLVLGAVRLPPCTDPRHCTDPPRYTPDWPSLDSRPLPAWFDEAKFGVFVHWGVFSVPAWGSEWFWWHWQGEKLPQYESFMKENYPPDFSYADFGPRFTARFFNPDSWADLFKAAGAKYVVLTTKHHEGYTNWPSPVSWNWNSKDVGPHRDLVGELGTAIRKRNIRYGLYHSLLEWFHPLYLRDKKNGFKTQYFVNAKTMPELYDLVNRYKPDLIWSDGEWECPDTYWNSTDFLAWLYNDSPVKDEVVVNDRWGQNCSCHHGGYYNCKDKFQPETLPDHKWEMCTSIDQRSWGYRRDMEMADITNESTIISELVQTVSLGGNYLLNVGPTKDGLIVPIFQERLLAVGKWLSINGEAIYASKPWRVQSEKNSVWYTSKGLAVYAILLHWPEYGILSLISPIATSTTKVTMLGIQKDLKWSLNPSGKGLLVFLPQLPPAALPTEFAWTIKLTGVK
# Helix pomatia [8] = experiment: Inhibition of snail beta-mannosidase using p-nitrophenyl glycoside as substrate at 1000 uM by spectrometric method relative to control
# [9] = Inhibition of Aspergillus niger amyloglucosidase using p-nitrophenyl glycoside as substrate by spectrometric method
# [10] = Inhibition of porcine kidney alpha/alpha-trehalase using p-nitrophenyl glycoside as substrate by spectrometric method; parameters: species or system Sus scrofa
# [11] = target: Alpha-glucosidase (Saccharomyces cerevisiae S288c) (UniProt P53341+P38158+P07265); experiment: Inhibition of yeast alpha-glucosidase using p-nitrophenyl glycoside as substrate at 1000 uM by spectrometric method relative to control; assay type: protein assay
# [12] = Inhibition of rat intestinal maltase using maltose as substrate at pH 6.8 by colorimetric method; assay type: tissue-based, Intestine
# Escherichia coli [13] = experiment: Inhibition of Escherichia coli beta-glucuronidase using p-nitrophenyl glycoside as substrate at 1000 uM by spectrometric method relative to control
# [14] = target: T2, Alpha-mannosidase (Canavalia ensiformis) (UniProt C0HJB3); experiment: Inhibition of jack bean alpha-mannosidase using p-nitrophenyl glycoside as substrate at 1000 uM by spectrometric method relative to control
# T2 sequence (whole entry): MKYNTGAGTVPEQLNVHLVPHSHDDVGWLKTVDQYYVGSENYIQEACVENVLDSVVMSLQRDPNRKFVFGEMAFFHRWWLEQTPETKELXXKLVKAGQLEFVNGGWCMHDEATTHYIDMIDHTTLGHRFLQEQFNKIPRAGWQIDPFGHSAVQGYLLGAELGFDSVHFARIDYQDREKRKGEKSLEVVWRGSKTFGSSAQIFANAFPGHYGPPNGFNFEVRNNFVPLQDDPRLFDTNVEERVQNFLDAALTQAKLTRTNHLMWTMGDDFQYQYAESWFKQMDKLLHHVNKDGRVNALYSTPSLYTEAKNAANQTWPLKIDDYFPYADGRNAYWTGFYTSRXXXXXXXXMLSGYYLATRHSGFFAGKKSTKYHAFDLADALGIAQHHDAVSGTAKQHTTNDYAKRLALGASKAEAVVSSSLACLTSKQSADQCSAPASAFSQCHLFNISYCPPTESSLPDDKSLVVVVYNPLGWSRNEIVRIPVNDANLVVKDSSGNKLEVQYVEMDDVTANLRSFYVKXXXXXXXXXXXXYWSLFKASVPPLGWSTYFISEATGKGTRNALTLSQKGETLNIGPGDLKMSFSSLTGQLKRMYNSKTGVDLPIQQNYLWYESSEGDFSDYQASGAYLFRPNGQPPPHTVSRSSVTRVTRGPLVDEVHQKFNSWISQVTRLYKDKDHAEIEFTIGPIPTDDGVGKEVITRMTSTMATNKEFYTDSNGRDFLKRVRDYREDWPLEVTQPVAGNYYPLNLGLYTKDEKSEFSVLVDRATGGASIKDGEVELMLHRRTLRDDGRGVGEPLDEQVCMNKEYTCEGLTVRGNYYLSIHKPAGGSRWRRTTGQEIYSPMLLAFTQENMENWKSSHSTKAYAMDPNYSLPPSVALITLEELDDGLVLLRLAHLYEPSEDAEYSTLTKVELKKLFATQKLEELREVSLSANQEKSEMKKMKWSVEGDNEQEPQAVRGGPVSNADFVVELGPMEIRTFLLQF
# Bos taurus [15] = species on record: Bos taurus; experiment: Inhibition of bovine liver beta-galactosidase using p-nitrophenyl glycoside as substrate at 1000 uM by spectrometric method relative to control; assay type: tissue-based
# Sus scrofa = species on record: Sus scrofa; experiment: Inhibition of porcine kidney alpha/alpha-trehalase using p-nitrophenyl glycoside as substrate at 1000 uM by spectrometric method relative to control; assay type: tissue-based
# Rattus norvegicus = species on record: Rattus norvegicus; experiment: Inhibition of rat intestinal maltase using maltose as substrate at 1000 uM at pH 6.8 by colorimetric method relative to control; assay type: tissue-based; conditions: Intestine
# Oryza sativa = experiment: Inhibition of rice alpha-glucosidase using p-nitrophenyl glycoside as substrate at 1000 uM by spectrometric method relative to control
# Helix pomatia [16] = experiment: Inhibition of snail beta-mannosidase at 1000 uM relative to control
# Escherichia coli [17] = experiment: Inhibition of Escherichia coli beta-glucuronidase at 1000 uM relative to control
# Bos taurus [18] = species on record: Bos taurus; experiment: Inhibition of bovine liver beta-glucosidase at 1000 uM relative to control; assay type: tissue-based
# Penicillium decumbens [19] = experiment: Inhibition of Penicillium decumbens alpha-L-rhamnosidase at 1000 uM relative to control
# Prunus dulcis [20] = experiment: Inhibition of almond beta-glucosidase at 1000 uM relative to control
# [21] = Inhibition of rice alpha-glucosidase; parameters: species or system Oryza sativa
# Bos taurus [22] = species on record: Bos taurus; experiment: Inhibition of bovine liver beta-galactosidase at 1000 uM relative to control
# [23] = target: Alpha-galactosidase (Coffea arabica) (UniProt Q42656); experiment: Inhibition of coffee bean alpha-galactosidase at 1000 uM relative to control
# Alpha-glucosidase = Alpha-glucosidase (Saccharomyces cerevisiae S288c, UniProt P53341+P38158+P07265); experiment: Inhibition of yeast alpha-glucosidase; assay type: protein assay
# [24] = target: T2, Alpha-mannosidase (Canavalia ensiformis); experiment: Inhibition of jack bean alpha-mannosidase at 1000 uM relative to control
# [25] = Inhibition of rat intestinal maltase; assay type: tissue-based, Intestine
# [26] = target: T1, Tissue alpha-L-fucosidase (Bos taurus); experiment: Inhibition of bovine kidney alpha-L-fucosidase at 1000 uM relative to control; assay type: tissue-based
# Bos taurus [27] = species on record: Bos taurus; experiment: Inhibition of bovine liver beta-glucuronidase at 1000 uM relative to control; assay type: tissue-based
# [28] = Inhibition of Aspergillus niger amyloglucosidase
# [29] = Inhibition of porcine kidney alpha/alpha-trehalase; assay type: tissue-based, Sus scrofa
# Alpha-galactosidase (Coffea arabica), sequence (Q42656 16-378 limits assumed): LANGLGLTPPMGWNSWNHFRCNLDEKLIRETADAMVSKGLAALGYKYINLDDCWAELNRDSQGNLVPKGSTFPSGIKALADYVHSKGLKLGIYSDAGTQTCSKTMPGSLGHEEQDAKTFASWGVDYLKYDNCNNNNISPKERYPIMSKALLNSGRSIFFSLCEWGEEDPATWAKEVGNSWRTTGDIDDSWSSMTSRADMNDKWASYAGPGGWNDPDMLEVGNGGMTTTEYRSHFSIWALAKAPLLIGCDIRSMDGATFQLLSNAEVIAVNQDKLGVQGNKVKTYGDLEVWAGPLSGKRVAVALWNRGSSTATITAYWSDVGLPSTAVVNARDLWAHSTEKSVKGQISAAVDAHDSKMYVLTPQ
smiles,measurement,setting,value
OC[C@@H]1[C@@H](O)[C@H](O)[C@H]2C[C@@H](O)CN12,inhibition,Prunus dulcis [1],13.6%
same,inhibition,Bos taurus [2],21.9%
same,inhibition,[3],4.4%
same,IC50,[4],234 µM
same,inhibition,Penicillium decumbens [5],6.3%
same,inhibition,Bos taurus [6],10.8%
same,inhibition,[7],14.8%
same,inhibition,Helix pomatia [8],3.6%
same,IC50,[9],40 µM
same,pIC50,[9],4.398
same,IC50,[10],124 µM
same,inhibition,[11],44.1%
same,IC50,[12],72 µM
same,inhibition,Escherichia coli [13],20.5%
same,inhibition,[14],6.3%
same,inhibition,Bos taurus [15],5.9%
OC[C@@H]1[C@@H](O)[C@H](O)[C@H]2[C@H](O)[C@@H](F)CN21,inhibition,Prunus dulcis [1],21.5%
same,inhibition,Bos taurus [2],18.8%
same,inhibition,[3],5%
same,inhibition,Sus scrofa,34.4%
same,IC50,[4],771 µM
same,inhibition,Penicillium decumbens [5],14.1%
same,inhibition,Bos taurus [6],33.2%
same,inhibition,[7],14.6%
same,inhibition,Helix pomatia [8],6.2%
same,IC50,[9],35 µM
same,pIC50,[9],4.456
same,inhibition,[11],41.9%
same,IC50,[12],313 µM
same,inhibition,Escherichia coli [13],7.5%
same,inhibition,[14],0%
same,inhibition,Bos taurus [15],36.7%
OC[C@@H]1[C@@H](O)[C@H](O)[C@H]2[C@@H](O)[C@H](F)CN21,inhibition,Prunus dulcis [1],8.5%
same,inhibition,Bos taurus [2],32.3%
same,inhibition,[3],0%
same,inhibition,Sus scrofa,30.4%
same,inhibition,Rattus norvegicus,41.7%
same,inhibition,Penicillium decumbens [5],0%
same,inhibition,Bos taurus [6],23.1%
same,inhibition,[7],0%
same,inhibition,Helix pomatia [8],0.8%
same,IC50,[9],11 µM
same,pIC50,[9],4.959
same,inhibition,[11],0%
same,inhibition,Oryza sativa,28.4%
same,inhibition,Escherichia coli [13],2.9%
same,inhibition,[14],0%
same,inhibition,Bos taurus [15],17.6%
OC[C@@H]1[C@@H](O)[C@H](O)[C@H]2[C@H](O)[C@H](O)CN21,inhibition,Helix pomatia [16],3%
same,inhibition,Escherichia coli [17],3.1%
same,inhibition,Bos taurus [18],1.9%
same,inhibition,Penicillium decumbens [19],13.2%
same,inhibition,Prunus dulcis [20],31.9%
same,IC50,[21],68 µM
same,inhibition,Bos taurus [22],5.9%
same,inhibition,[23],6%
same,IC50,Alpha-glucosidase,46 µM
same,inhibition,[24],1.1%
same,IC50,[25],13 µM
same,inhibition,[26],0%
same,inhibition,Bos taurus [27],18.4%
same,pIC50,[9],5.276
same,IC50,[28],5.3 µM
same,IC50,[29],9.7 µM
OC[C@@H]1[C@@H](O)[C@H](O)[C@H]2[C@H](O)[C@@H](O)CN21 [CASUARINE],inhibition,Helix pomatia [16],0%
same,inhibition,Escherichia coli [17],1.8%
same,inhibition,Bos taurus [18],7.5%
same,inhibition,Penicillium decumbens [19],4.6%
same,inhibition,Prunus dulcis [20],12%
same,IC50,[21],14 µM
same,inhibition,Bos taurus [22],10.2%
same,inhibition,[23],3.7%
same,IC50,Alpha-glucosidase,71 µM
same,inhibition,[24],0%
same,IC50,[25],3.1 µM
same,inhibition,[26],0%
same,inhibition,Bos taurus [27],17.3%
same,pIC50,[9],5.201
same,IC50,[28],6.3 µM
same,IC50,[29],157 µM
